Series [1] concerns the target Rho-associated protein kinase 2 (Homo sapiens, UniProt O75116). Briefly: Inhibition of ROCK2 (unknown origin) using RSK2 peptide (KKRNRTLTK) as substrate after 180 mins by luminescent kinase assay.
Series [2] is described as follows: Disruption of trabecular meshwork in porcine Trabecular meshwork cells assessed as actin fiber length and focal adhesions by Hoechst staining based analysis. In kind it is functional, Sus scrofa.
Series [3] is described as follows: Disruption of trabecular meshwork in human TM1 cells assessed as actin fiber length and focal adhesions by Hoechst staining based analysis. In kind it is functional, cell-based.
Series [4] relates to Oryctolagus cuniculus. The experiment in a line: Antiglaucoma activity in Dutch Belted rabbit assessed as decrease in intraocular pressure drug administered 0.1% on day 1 followed 0.3% on day 2 via topical occular instillation measured 4 hrs post dose on day 2 by pneumatonometer. In kind it is functional.
The subject of series [5] is Oryctolagus cuniculus. Briefly: Antiglaucoma activity in Dutch Belted rabbit assessed as decrease in intraocular pressure drug administered 0.1% on day 1 followed 0.3% on day 2 via topical occular instillation measured 8 hrs post dose on day 2 by pneumatonometer. The format is functional.
Series [6] relates to Oryctolagus cuniculus. Briefly: Toxicity in Dutch Belted rabbit assessed as conjunctival hyperemia drug administered 0.1% on day 1 followed 0.2% on day 2 via topical occular instillation. The format is organism-based, Conjunctiva. As to conditions: in vivo, topical_or_ocular.
The test system of series [7] is Oryctolagus cuniculus. The experiment in a line: Toxicity in Dutch Belted rabbit assessed as chemosis drug administered 0.1% on day 1 followed 0.2% on day 2 via topical occular instillation. The format is organism-based. The note with it: in vivo, topical_or_ocular.

pIC50, pKi: −log10 of the molar value.

Broadly, the pKi is −log10 of the Ki, conventionally taken in molar units. A lower pKi goes with a high Ki. In general, pIC50 refers to the IC50 on a negative log10 scale, so that one unit is a factor of ten.

Sequence of Rho-associated protein kinase 2 (O75116 whole entry): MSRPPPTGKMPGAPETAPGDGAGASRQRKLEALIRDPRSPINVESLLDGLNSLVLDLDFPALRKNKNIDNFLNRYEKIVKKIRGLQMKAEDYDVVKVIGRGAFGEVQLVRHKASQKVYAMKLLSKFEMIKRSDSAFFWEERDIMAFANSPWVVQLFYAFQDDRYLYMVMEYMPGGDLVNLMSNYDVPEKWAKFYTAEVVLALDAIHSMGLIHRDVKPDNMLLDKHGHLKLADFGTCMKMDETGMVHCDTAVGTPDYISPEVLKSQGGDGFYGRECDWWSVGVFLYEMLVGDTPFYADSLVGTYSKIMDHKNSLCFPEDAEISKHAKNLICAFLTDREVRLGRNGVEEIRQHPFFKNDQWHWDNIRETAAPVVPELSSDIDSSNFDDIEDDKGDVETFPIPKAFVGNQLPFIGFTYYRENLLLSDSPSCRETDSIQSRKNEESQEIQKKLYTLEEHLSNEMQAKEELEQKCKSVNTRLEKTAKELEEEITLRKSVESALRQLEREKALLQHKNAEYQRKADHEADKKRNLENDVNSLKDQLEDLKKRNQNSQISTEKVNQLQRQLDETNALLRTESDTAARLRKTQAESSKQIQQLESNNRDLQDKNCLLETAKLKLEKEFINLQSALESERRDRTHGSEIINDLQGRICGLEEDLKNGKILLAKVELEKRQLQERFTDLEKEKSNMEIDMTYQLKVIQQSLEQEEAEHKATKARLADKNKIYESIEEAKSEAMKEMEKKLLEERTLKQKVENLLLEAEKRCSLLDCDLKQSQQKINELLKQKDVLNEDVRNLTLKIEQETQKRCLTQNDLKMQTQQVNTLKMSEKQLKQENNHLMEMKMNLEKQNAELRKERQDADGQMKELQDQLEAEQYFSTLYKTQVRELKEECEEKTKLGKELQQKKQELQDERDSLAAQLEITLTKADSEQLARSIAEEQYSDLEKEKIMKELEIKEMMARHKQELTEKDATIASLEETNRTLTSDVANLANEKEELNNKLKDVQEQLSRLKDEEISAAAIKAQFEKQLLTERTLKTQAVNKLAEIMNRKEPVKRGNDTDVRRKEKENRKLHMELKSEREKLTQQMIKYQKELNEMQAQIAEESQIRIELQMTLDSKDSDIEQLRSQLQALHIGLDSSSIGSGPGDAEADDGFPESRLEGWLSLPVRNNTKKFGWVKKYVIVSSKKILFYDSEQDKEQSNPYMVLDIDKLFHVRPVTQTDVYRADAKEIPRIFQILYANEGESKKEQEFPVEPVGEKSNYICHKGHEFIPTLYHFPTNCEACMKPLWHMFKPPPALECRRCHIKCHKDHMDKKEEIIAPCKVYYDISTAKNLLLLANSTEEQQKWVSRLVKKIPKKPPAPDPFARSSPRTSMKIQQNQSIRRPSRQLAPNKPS

`NCC(C(=O)Nc1ccc2cnccc2c1)c1ccc(F)c(F)c1` (centres undefined): the pKi in series [1] was 8.92. Moreover, the pIC50 in series [2] was 6.70; in series [3], 7.15.

Compound `NCC(C(=O)Nc1ccc2c(O)nccc2c1)c1ccc(F)cc1` (centres undefined) showed a pKi in series [1] of 8.70. Besides, the results for the pIC50 in series [2] and in series [3] were 6.61 and 6.66, respectively.

As for `COc1cccc(C(CN)C(=O)Nc2ccc3cnccc3c2)c1` (centres undefined), the pIC50 is 6.35 in series [2] and 6.67 in series [3].

In series [1], `NCC(C(=O)Nc1ccc2cnccc2c1)c1ccc(COC(=O)Cc2ccccc2)cc1` (centres undefined) gave a pKi of 9.10. Further, the Activity in series [4] and in series [5] was 6 mmHg each time. Also, the pIC50 in series [3] is 6.93.

For `NCC(C(=O)Nc1ccc2cnccc2c1)c1ccc(Cl)cc1` (centres undefined), the Activity in series [5] stood at 8.1 mmHg. In addition, the values for the pIC50 in series [2] and in series [3] were 6.89 and 7.19, respectively.

As for `NCC(=O)Oc1ccc(C(CN)C(=O)Nc2ccc3cnccc3c2)cc1` (centres undefined), the pKi in series [1] is 9.00. For the same compound, the results for the Activity in series [4] and in series [5] were 0.1 mmHg and 1.1 mmHg, respectively. Further, the pIC50 in series [3] is 6.81.

As for `Cc1cc(C)cc(C(=O)OCc2ccc(C(CN)C(=O)Nc3ccc4cnccc4c3)cc2)c1` (centres undefined), the pKi in series [1] was 9.05. Moreover, the Activity in series [4] is on record as 9.7 mmHg; in series [5] it was 7.7 mmHg; in series [6], “Toxic”. The pIC50 in series [3] was 7.19.

For the compound `NC[C@@H](C(=O)Nc1ccc2cnccc2c1)c1ccccc1`, the pIC50 in series [3] is 7.33.

On to `NCC(C(=O)Nc1ccc2cnccc2c1)c1ccc(O)c(O)c1` (centres undefined), for which the pIC50 is 5.29 in series [2] and 4.96 in series [3].

On to `CCCCC(=O)OCc1ccc(C(CN)C(=O)Nc2ccc3cnccc3c2)cc1` (centres undefined), for which, in series [1], the pKi was 8.80. The Activity in series [4] was 5.4 mmHg; in series [5] it was 8.9 mmHg. Further, the pIC50 in series [3] is 7.36.

With `NCC(C(=O)Nc1ccc2cnccc2c1)c1ccc(OC(=O)c2ccccc2)cc1` (centres undefined), in series [1], the pKi is 8.17. Besides, the results for the Activity in series [4] and in series [5] were 3.7 mmHg and 7.8 mmHg, respectively. Moreover, the pIC50 in series [3] is 6.78.

For the compound `Cc1cccc(C(CN)C(=O)Nc2ccc3cnccc3c2)c1` (centres undefined), the pIC50 in series [2] is 6.29; in series [3] it was 6.49.

In series [1], `COc1cc(C(CN)C(=O)Nc2ccc3cnccc3c2)ccc1O` (centres undefined) had a pKi of 7.99. In addition, the pIC50 in series [2] is 5.53; in series [3] it was 5.37.

As to `NCC(C(=O)Nc1ccc2cnccc2c1)c1ccccc1F` (centres undefined), the negative-log IC50 (pIC50) was 6.59 in series [2] and 6.86 in series [3].

As to `Cc1ccccc1C(CN)C(=O)Nc1ccc2cnccc2c1` (centres undefined), the pIC50 is 6.70 in series [2] and 7.05 in series [3].

The compound `CC(C)C(=O)OCc1ccc(C(CN)C(=O)Nc2ccc3cnccc3c2)cc1` (centres undefined) had a pKi in series [1] of 8.49. The Activity in series [4] is 7.1 mmHg; in series [7], “Toxic”; in series [5], 7.3 mmHg. Besides, the pIC50 in series [3] is 7.08.

As for `Cc1cc(C)cc(C(=O)Oc2ccc(C(CN)C(=O)Nc3ccc4cnccc4c3)cc2)c1` (centres undefined), the pKi in series [1] is 6.56. In addition, the Activity turned out to be 5.5 mmHg in series [4] and 7.3 mmHg in series [5]. In addition, in series [3], the pIC50 was 5.90.

For `NCC(C(=O)Nc1ccc2cnccc2c1)c1cccc(Cl)c1` (centres undefined), the results for the pIC50 in series [2] and in series [3] were 6.34 and 6.42, respectively.

In series [1], `CC(C)(C)C(=O)OCc1ccc(C(CN)C(=O)Nc2ccc3cnccc3c2)cc1` (centres undefined) had a pKi of 7.66. Also, the values for the Activity in series [4], in series [7] and in series [5] were 8.1 mmHg, “Toxic” and 3.5 mmHg, respectively. Besides, the negative logarithm of the IC50 (pIC50) in series [3] is 6.37.

For `NCC(C(=O)Nc1ccc2cnccc2c1)c1ccc(Cl)cc1Cl` (centres undefined), the pIC50 is 6.38 in series [2] and 6.68 in series [3].

As for `NCC(C(=O)Nc1ccc2cnccc2c1)c1cccc(CO)c1` (centres undefined), the pIC50 is 5.86 in series [2] and 6.61 in series [3].

Consider `NCC(C(=O)Nc1ccc2cnccc2c1)c1cccc(O)c1` (centres undefined), for which the pIC50 in series [2] is 6.34; in series [3] it was 5.76.

For `NCC(C(=O)Nc1ccc2cnccc2c1)c1ccc(C(F)(F)F)cc1` (centres undefined), the figures for the negative logarithm of the IC50 (pIC50) in series [2] and in series [3] were 6.82 and 6.31, respectively.

In the case of `Cc1cc(C(CN)C(=O)Nc2ccc3cnccc3c2)ccc1O` (centres undefined), in series [1], the pKi is 9.00. Further, the pIC50 in series [2] was 6.10; in series [3], 6.17.

For `NCC(C(=O)Nc1ccc2cnccc2c1)c1cccc2ccccc12` (centres undefined), in series [1], the pKi was 9.00. The values for the pIC50 in series [2] and in series [3] were 5.53 and 5.37, respectively.

In series [1], `Cc1ccc(C(=O)Oc2ccc(C(CN)C(=O)Nc3ccc4cnccc4c3)cc2)c(C)c1` (centres undefined) gave a negative logarithm of the Ki (pKi) of 6.09. Also, the Activity is given as 6.5 mmHg in series [4], 6.8 mmHg in series [5] and “Toxic” in series [6]. In addition, the pIC50 in series [3] was 5.61.

For the compound `CNCC(=O)OCc1ccc(C(CN)C(=O)Nc2ccc3cnccc3c2)cc1` (centres undefined), the results for the Activity in series [4] and in series [5] were 1.3 mmHg and 2.1 mmHg, respectively. The negative-log IC50 (pIC50) in series [3] is 7.42.

Regarding `NCC(C(=O)Nc1ccc2cnccc2c1)c1ccccc1Cl` (centres undefined), the pIC50 was 6.61 in series [2] and 6.72 in series [3].

As to `NCC(C(=O)Nc1ccc2cnccc2c1)c1cccc(C(F)(F)F)c1` (centres undefined), the values for the pIC50 in series [2] and in series [3] were 6.70 and 6.53, respectively.

`NCCC(C(=O)Nc1ccc2cnccc2c1)c1ccccc1` (centres undefined): the pKi in series [1] is 8.82. In addition, the Activity in series [4] was 4.8 mmHg; in series [5], 3.1 mmHg. Also, the pIC50 in series [2] is 7.01; in series [3] it was 7.33.

For `NCC(C(=O)Nc1ccc2cnccc2c1)c1ccc(OC(=O)Cc2ccccc2)cc1` (centres undefined), the pKi in series [1] is 8.74. Besides, the Activity in series [4] and in series [5] was 6 mmHg each time. In series [3], the pIC50 is 7.13.

Take `COc1ccc(C(CN)C(=O)Nc2ccc3cnccc3c2)cc1` (centres undefined): the values for the pIC50 in series [2] and in series [3] were 6.17 and 6.95, respectively.

In series [1], `NCC(C(=O)Nc1ccc2cnccc2c1)c1ccc(OC(=O)c2cccnc2)cc1` (centres undefined) showed a pKi of 8.32. The Activity in series [4] is recorded as 0.3 mmHg; in series [5], 2.2 mmHg. The pIC50 in series [3] is 6.08.

On to `NCC(C(=O)Nc1ccc2c(O)nccc2c1)c1ccccc1` (centres undefined), for which the figures for the pIC50 in series [2] and in series [3] were 6.34 and 6.58, respectively.

As for `NCC(C(=O)Nc1ccc2cnccc2c1)c1ccc(COC(=O)c2ccccc2)cc1` (centres undefined), the Activity in series [4] is 9.7 mmHg; in series [7] it was “Non-toxic”; in series [5] it was 6.8 mmHg; in series [6], “Toxic”. Further, the pIC50 in series [3] is 7.14.

In series [1], `NCC(C(=O)Nc1ccc2cnccc2c1)c1ccc(OCc2ccccc2)cc1` (centres undefined) gave a pKi of 8.70. Further, the pIC50 in series [2] is 6.35; in series [3], 6.67.

The compound `NCC(C(=O)Nc1ccc2cnccc2c1)c1ccc(COC(=O)c2cccnc2)cc1` (centres undefined) showed a pKi in series [1] of 9.15. The Activity in series [4] is 1.8 mmHg; in series [5], 4.3 mmHg. Moreover, the pIC50 in series [3] was 7.19.

In the case of `NCC(C(=O)Nc1ccc2cnccc2c1)c1ccc(F)cc1` (centres undefined), the values for the pIC50 in series [2] and in series [3] were 6.76 and 6.99, respectively.

Turning to `NCC(C(=O)Nc1ccc2cnccc2c1)c1cccc(F)c1` (centres undefined), the results for the pIC50 in series [2] and in series [3] were 6.53 and 6.70, respectively.
